Measured values: publication PMC9944328 (Nature Communications, 2023)
Values joined by “and” are separate entries in the source; they are usually repeats but may differ in a detail not shown here. Equal values may be shown once.

Target: SSTR2 (Homo sapiens, UniProt P30874)
Test: SSTRs Gi-mediated cAMP inhibition, GloSensor, HEK293, 5 μM forskolin, 15 min room temperature (SSTR2 wild-type);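 for Bottom (best-fit value): normalized to the maximal wild-type response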;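 for Bottom (best-fit): normalized to the maximal wild-type response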;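 for Span (best-fit value): normalized to the maximal wild-type response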;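 for Span (best-fit): normalized to the maximal wild-type response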;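 for Top (best-fit value): normalized to the maximal wild-type response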;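 for Top (best-fit): normalized to the maximal wild-type response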
Assay type: cell-based
Parameters: Best-fit Top, cAMP inhibition / Span, cAMP inhibition / Best-fit Bottom / Best-fit Top / Best-fit Span / Bottom / Span (best-fit value), cAMP inhibition / Top (best-fit value), cAMP inhibition: scale not given here
Settings: for Best-fit Top, cAMP inhibition / Span, cAMP inhibition: octreotide
Method: The levels of the intracellular 3′, 5′-cyclic AMP (cAMP) were measured by the GloSensor cAMP assay (Promega) as described in the previous studies[28],[41] which has been widely used. The human full-length SSTRs and mutants were cloned into the pcDNA3.1+ vector with a HA signal sequence followed by a Flag tag at the N-terminus. HEK293 cells (ATCC, CRL-1573) were seeded into 6-well microplates at a density of 1.0 × 10^6 cells/well and cultured for 24 h at 37 °C with 5% CO2. Cells were then co-transfected with SSTR wild-type or mutants and GloSensor plasmids. After 24 h of transfection, the cells were dissociated with TrypLE™ Express Enzyme (1X) (Thermo Fisher Scientific) and collected by centrifugation at 500 × g for 5 min. Then the collected cells were suspended in Hank’s balanced salt solution [HBSS (Thermo Fisher Scientific)] supplemented with […] (YEASEN), and then the suspension cells were seeded into 96-well plates with 90 μl/well. After incubating at room temperature for 40 min, 5 μM forskolin and ligands diluted in HBSS were added to each well and the plates were incubated at room temperature for 15 min. […] were measured using the Synergy H1 microplate reader (BioTek) and the data presented are means of at least three independent experiments.

[1] = cAMP inhibition, SSTR2 WT-1 (run 1)
[2] = cAMP inhibition, SSTR2 WT-2 (run 2)
[3] = cAMP inhibition, SSTR2 WT-3 (run 3)
[4] = SSTR2 WT-1, run 1 (WT of each mutant's set)
[5] = SSTR2 WT-2, run 2 (WT of each mutant's set)
[6] = SSTR2 WT-3, run 3 (WT of each mutant's set)

SSTR2, sequence (P30874 whole entry): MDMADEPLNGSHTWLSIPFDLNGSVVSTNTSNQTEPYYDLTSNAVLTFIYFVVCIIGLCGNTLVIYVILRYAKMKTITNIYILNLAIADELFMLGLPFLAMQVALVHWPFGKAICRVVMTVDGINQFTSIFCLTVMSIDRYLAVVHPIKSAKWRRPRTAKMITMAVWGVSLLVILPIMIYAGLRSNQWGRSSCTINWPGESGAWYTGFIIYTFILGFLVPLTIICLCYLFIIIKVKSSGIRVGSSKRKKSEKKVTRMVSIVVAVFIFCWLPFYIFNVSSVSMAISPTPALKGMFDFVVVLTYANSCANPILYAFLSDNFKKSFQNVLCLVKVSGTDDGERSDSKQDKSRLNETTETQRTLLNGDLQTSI

C[C@@H](O)[C@@H]1NC(=O)[C@H](CCCCN)NC(=O)[C@@H](Cc2c[nH]c3ccccc23)NC(=O)[C@H](Cc2ccccc2)NC(=O)[C@@H](NC(=O)[C@H](N)Cc2ccccc2)CSSC[C@@H](C(=O)N[C@H](CO)[C@@H](C)O)NC1=O [octreotide]
Best-fit Top (WT-2 of K291A set): 102.4 | Best-fit Bottom (WT-2 of L290A set): 5.269 | Best-fit Span (WT-2 of L290A set): 95.18 | Best-fit Top (WT-2 of L290A set): 100.5 | Bottom (best-fit) (WT-2 of N276A set): 2.714 | Span (best-fit) (WT-2 of N276A set): 101.1 | Top (best-fit) (WT-2 of N276A set): 103.8 | Bottom (best-fit) (WT-2 of P220A set): 2.714 | Span (best-fit) (WT-2 of P220A set): 101.1 | Top (best-fit) (WT-2 of P220A set): 103.8 | Best-fit Bottom (WT-2 of S279A set): -6.301 | Best-fit Span (WT-2 of S279A set): 114.5 | Best-fit Top (WT-2 of S279A set): 108.2 | Bottom (best-fit) (WT-2 of W269A set): -0.5171 | Span (best-fit) (WT-2 of W269A set): 111.1 | Top (best-fit) (WT-2 of W269A set): 110.6 | Best-fit Bottom (WT-2 of Y302A set): -0.5171 | Best-fit Span (WT-2 of Y302A set): 111.1 | Best-fit Top (WT-2 of Y302A set): 110.6 | Bottom (best-fit value) (WT-3, run 3, batch of I284A): 5.269 | Span (best-fit value) (WT-3, run 3, batch of I284A): 95.18 | Top (best-fit value) (WT-3, run 3, batch of I284A): 100.5 | Bottom (best-fit value) (WT-3, run 3, batch of P286A): 0.3403 | Span (best-fit value) (WT-3, run 3, batch of P286A): 101 | Top (best-fit value) (WT-3, run 3, batch of P286A): 101.3 | Bottom (best-fit value) (WT-3, run 3, batch of S285A): 0.3403 | Span (best-fit value) (WT-3, run 3, batch of S285A): 101 | Top (best-fit value) (WT-3, run 3, batch of S285A): 101.3 | Bottom (best-fit value) (WT-3, run 3, batch of T194A): 9.705 | Bottom (best-fit value) (WT-3, run 3, batch of T287A): 0.3403 | Span (best-fit value) (WT-3, run 3, batch of T287A): 101 | Top (best-fit value) (WT-3, run 3, batch of T287A): 101.3 | Bottom (best-fit value) (WT-3, run 3, batch of W188A): 0.3403 | Span (best-fit value) (WT-3, run 3, batch of W188A): 101 | Top (best-fit value) (WT-3, run 3, batch of W188A): 101.3 | Best-fit Bottom (WT-3 of D295A set): 5.262 | Best-fit Span (WT-3 of D295A set): 106.6 | Best-fit Top (WT-3 of D295A set): 111.9 | Span (best-fit) (WT-3 of F208A set): 108.3 | Bottom (best-fit) (WT-3 of F265A set): 9.705 | Span (best-fit) (WT-3 of F265A set): 95.34 | Top (best-fit) (WT-3 of F265A set): 105 | Bottom (best-fit) (WT-3 of F272A set): 21.28 | Span (best-fit) (WT-3 of F272A set): 73.55 | Top (best-fit) (WT-3 of F272A set): 94.83 | Best-fit Bottom (WT-3 of F294A set): -6.301 | Best-fit Span (WT-3 of F294A set): 114.5 | Best-fit Top (WT-3 of F294A set): 108.2 | Best-fit Bottom (WT-3 of K291A set): 9.705 | Best-fit Span (WT-3 of K291A set): 95.34 | Best-fit Top (WT-3 of K291A set): 105 | Best-fit Bottom (WT-3 of L290A set): 0.5044 | Best-fit Span (WT-3 of L290A set): 101.8 | Best-fit Top (WT-3 of L290A set): 102.3 | Bottom (best-fit) (WT-3 of N276A set): 9.705 | Span (best-fit) (WT-3 of N276A set): 95.34 | Top (best-fit) (WT-3 of N276A set): 105 | Bottom (best-fit) (WT-3 of P220A set): 9.705 | Span (best-fit) (WT-3 of P220A set): 95.34 | Top (best-fit) (WT-3 of P220A set): 105 | Best-fit Bottom (WT-3 of S279A set): 5.269 | Best-fit Span (WT-3 of S279A set): 95.18 | Best-fit Top (WT-3 of S279A set): 100.5 | Bottom (best-fit) (WT-3 of W269A set): 5.108 | Span (best-fit) (WT-3 of W269A set): 89.16 | Top (best-fit) (WT-3 of W269A set): 94.27 | Best-fit Bottom (WT-3 of Y302A set): 5.269 | Best-fit Span (WT-3 of Y302A set): 95.18 | Best-fit Top (WT-3 of Y302A set): 100.5 | Span (best-fit value) [1]: 89.16 and 95.18 and 102.3 and 73.55 and 108.3 | Top (best-fit value) [1]: 94.27 and 100.5 and 105.4 and 94.83 and 106.4 | Span (best-fit value) [2]: 114.5 and 95.18 and 103.8 and 101.1 | Top (best-fit value) [2]: 108.2 and 100.5 and 107.6 and 103.8 and 95.77 | Span (best-fit value) [3]: 114.5 and 89.16 and 108 and 95.34 and 149.7 | Top (best-fit value) [3]: 108.2 and 94.27 and 109.2 and 105 and 143.2 and 106.4 | Top (best-fit) (cAMP inhibition, SSTR2-WT, run 1): 101.1 | Top (best-fit) (cAMP inhibition, SSTR2-WT, run 2): 101.1 | Top (best-fit) (cAMP inhibition, SSTR2-WT, run 3): 96.66 | Top (best-fit) (cAMP inhibition, SSTR2-WT, run 4): 105.3 | Best-fit Top, cAMP inhibition [4]: 94.27 and 103.3 and 100.5 and 96 and 105 and 108.2 | Span, cAMP inhibition [4]: 89.16 and 99.34 and 96.76 and 114.5 | Best-fit Top, cAMP inhibition [5]: 103.8 and 107.6 and 101.1 and 105.4 and 106.4 | Span, cAMP inhibition [5]: 101.1 and 103.8 and 99.15 and 102.3 and 108.3 | Best-fit Top, cAMP inhibition [6]: 103.8 and 101.3 and 105 and 107.6 and 103.3 | Span, cAMP inhibition [6]: 101.1 and 101 and 103.8 and 99.34
